Measurements: patent US11548850B2, “Development of a cofilin inhibitor for the treatment of hemorrhagic brain injury-induced neuroinflammation” (The University of Toledo, priority 2019, dated 2023)

Target: cofilin (Homo sapiens, UniProt P23528)
Assay: Cofilin inhibition by the compound still protected on one side (no method given)
Settings: one side of the Formula I structure still protected (TBS)

Sequence of cofilin (P23528 whole entry): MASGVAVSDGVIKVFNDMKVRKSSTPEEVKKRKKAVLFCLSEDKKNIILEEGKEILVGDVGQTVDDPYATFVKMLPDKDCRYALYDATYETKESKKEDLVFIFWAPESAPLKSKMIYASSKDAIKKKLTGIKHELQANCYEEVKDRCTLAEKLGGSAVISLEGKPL

For `CC(C)(C)c1ccc(O)c(CN(Cc2cc(C(C)(C)C)ccc2O[Si](C)(C)C(C)(C)C)C2CCC(NC(N)=O)CC2)c1` (stereo not shown) [SZ-2], the cofilin inhibition was “still works to inhibit cofilin”.
